{"source": "patent US20230149554A1", "about": "“TARGETED DEGRADATION OF THE ONCOGENIC MICRORNA 17-92 CLUSTER BY STRUCTURE-TARGETING LIGANDS” (University of Florida Research Foundation, Incorporated, priority 2020, published 2023)", "key": {"plasmid DNA": {"tested_on": "plasmid DNA", "settings": "100 nM", "quoted_text": "In vitro Bleomycin cleavage of DNA plasmid. […] Another equivalent of (NH4)2Fe(SO4)2.6H2O was added after 30 min and 60 min respectively. The mixture was loaded on 1% agarose with 6× loading dye and stained with ethidium bromide. Bands were quantified using ImageJ image analysis software."}, "Cellular uptake analysis": {"assay": "Cellular uptake analysis", "type": "in vitro ADME, human", "settings": "5 μM, 24 h, DU-145 and MDA-MB-231", "procedure": "Cellular uptake analysis. DU145 and MDA-MB-231 cells were seeded into a 96-well white clear bottom plate at 10,000 cells/well and allowed to adhere overnight. Once adhered, the cells were grown to ˜50% confluency and then treated with 2, 5, or 7 at 5 μM for 24 h while also leaving untreated wells for generation of a standard curve. This concentration was chosen to allow for adequate signal above noise. After 24 h, cells were lysed in 100 μL of RNA lysis buffer (Zymo Research) for 5 min. Compound 2, 5, or 7 were spiked into untreated samples at 100, 10, 1, 0.1, and 0.01 nM to create a standard curve of compound fluorescence. Using a Biotek FLX-800 fluorescence plate reader (excitation: 360/340; emission 460/440; sensitivity=90) the fluorescence of 2, 5, and 7 was measured. Concentrations were determined by extrapolating from the standard curves mentioned above."}, "pri-miR-17-92 cluster [1]": {"tested_on": "pri-miR-17-92 cluster", "assay": "RT-qPCR of pri-, pre- and mature miRNAs in MDA-MB-231 cells", "type": "cell-based, human", "procedure": "Absolute quantification of pri-, pre-, and mature miRNAs. Transcripts of pre-miR-17, pre-miR-18a, and the corresponding 5p mature sequences were transcribed in vitro and purified as described above. Precursor miRNAs (1×10^14 copies) were reverse transcribed using QScript RT (Quanta bio) in a total volume of 40 μL. Mature miRNAs (1×10^14 copies) were reverse transcribed using the miScript II RT Kit (Qiagen) in a total volume of 40 μL reaction. Serial dilutions of the RT reactions (1:10) were used to create a standard curve of copy number versus Ct which was used to calculate copy numbers of each transcript in DU-145 and MDA-MB-231 cells."}, "pri-miR-17-92 cluster [2]": {"tested_on": "pri-miR-17-92 cluster", "assay": "RT-qPCR of pri-, pre- and mature miRNAs in DU-145 cells", "type": "cell-based, human", "settings": "DU-145, treatment with 7", "quoted_text": "RT-qPCR in DU145, MDA-MB-231, and WT-9-12 cells. DU145 cells were seeded into 12-well plates at ˜50% confluency (≈200,000 cells/well) and allowed to adhere for 12 h. After adhering, the cells were treated with compounds 2, 5, 6, or 7 (10, 100, and 500 nM) for 24 h. Total RNA was then harvested using a Zymo-Quick RNA Mini prep kit (Zymo Research) with DNase treatment according in the manufacturers protocol. Reverse transcription (RT) for mature miRNAs was done using the miScript II RT kit (Qiagen) with 200 ng of total RNA. To measure precursor and mRNA levels, RT was done using qScript (Quanta Bio) according to the manufacturers protocol on 1000 ng of total RNA. RT-qPCR was carried out on an Applied Biosystems 7900HT cycler under standard conditions (2 step PCR; 60° C. annealing/elongation, 95° C. melt) using the Power Sybr Master Mix (Applied Biosystems). […] Total RNA was extracted in a similar manner and subjected to RT-qPCR as described above. RT for precursor and mRNAs in MDA-MB-231 cells was done using the High Flex buffer in the miScript II RT kit.\nAbsolute quantification of pri-, pre-, and mature miRNAs. Transcripts of pre-miR-17, pre-miR-18a, and the corresponding 5p mature sequences were transcribed in vitro and purified as described above. Precursor miRNAs (1×10^14 copies) were reverse transcribed using QScript RT (Quanta bio) in a total volume of 40 μL. […]"}, "[3]": {"target": "bulges 5′G_U/3′CUA, 5′GGU/3′C_A and 5′GAU/3′C_A", "settings": "previous study, cited from earlier work"}}, "data": [{"molecule": "Cc1c(N)nc([C@H](CC(N)=O)NC[C@H](N)C(N)=O)nc1C(=O)N[C@H](C(=O)N[C@H](C)[C@@H](O)[C@H](C)C(=O)N[C@H](C(=O)NCCc1nc(-c2nc(C(=O)NCCCNCCCCN)cs2)cs1)[C@@H](C)O)[C@@H](O[C@@H]1O[C@@H](CO)[C@@H](O)[C@H](O)[C@@H]1O[C@@H]1O[C@H](CO)[C@@H](O)[C@H](OC(N)=O)[C@@H]1O)c1cnc[nH]1", "note": "[Bleomycin A5]", "values": [{"measurement": "cleavage of plasmid DNA", "setting": "plasmid DNA", "value": "significantly cleaved DNA"}]}, {"molecule": "CCCN(CC(=O)N(CCC)CC(=O)N(CCC)CC(=O)N(CC(=O)NCCOCCOCCOCCOc1ccc(/C=C2\\SC(Nc3ccccc3)=C(C(=O)OCC)C2=O)cc1O)Cc1cn(CCCNC(=O)CCCOc2c(C(C)(C)C)cc(-c3nc4cc(-c5ccc(N6CCN(C)CC6)cc5)ccc4[nH]3)cc2C(C)(C)C)nn1)C(=O)CN(Cc1cn(CCCNC(=O)CCCOc2c(C(C)(C)C)cc(-c3nc4cc(-c5ccc(N6CCN(C)CC6)cc5)ccc4[nH]3)cc2C(C)(C)C)nn1)C(C)=O", "note": "[Compound 7]", "values": [{"measurement": "cellular uptake", "setting": "Cellular uptake analysis", "value": "taken up to a similar extent as 2"}, {"measurement": "decrease of pre-miR-17 levels", "setting": "pri-miR-17-92 cluster [1]; MDA-MB-231, 7 at 500 nM", "value": "31(±3) %"}, {"measurement": "decrease of pre-miR-18a levels", "setting": "pri-miR-17-92 cluster [1]; MDA-MB-231, 7 at 500 nM", "value": "19(±4) %"}, {"measurement": "decrease of pre-miR-20a levels", "setting": "pri-miR-17-92 cluster [1]; MDA-MB-231, 7 at 500 nM", "value": "36(±3) %"}, {"measurement": "pri-miR-17/92 levels", "setting": "pri-miR-17-92 cluster [1]; MDA-MB-231, 7 at 500 nM", "value": "unchanged"}, {"measurement": "levels of mature miR-17, miR-18a and miR-20a", "setting": "pri-miR-17-92 cluster [1]; MDA-MB-231, treatment with 7", "value": "reduced the levels of mature miR-17, miR-18a, and miR-20a dose dependently"}, {"measurement": "levels of the other three mature miRNAs in the cluster", "setting": "pri-miR-17-92 cluster [1]; MDA-MB-231, treatment with 7", "value": "no effect"}, {"measurement": "mature and pre-miRNA levels of the pre-miRNAs that bind 2", "setting": "pri-miR-17-92 cluster [2]", "value": "reduced levels"}, {"measurement": "pri-miR-17/92 levels", "setting": "pri-miR-17-92 cluster [2]", "value": "No effect"}]}, {"molecule": "CN1CCN(c2ccc(-c3ccc4nc(-c5cc(C(C)(C)C)c(OCCCC(=O)NCCCN=[N+]=[N-])c(C(C)(C)C)c5)[nH]c4c3)cc2)CC1", "note": "[Compound 1]", "values": [{"measurement": "Kd", "setting": "[3]; bulges of pre-miR-17, -18a, -20a, read-out: Kd's of 1 for the three bulges", "value": "30 to 40", "unit": "µM"}, {"measurement": "binding of 1 to RNAs with bulges mutated to GC or AU base pairs", "setting": "[3]", "value": "No binding was observed"}]}]}
